Series [1] concerns number of writhings (0.6% acetic acid, intraperitoneal). The experiment in a line: Test on analgesic activity (acetic acid-induced writhing). Type of series: in vivo, mice (ddY, male). The settings on record: Mus musculus, po, mice; parentheses = 95% confidence limits. The method, then:
Male mice (ddY) with a body weight of 18 to 22 g were used in groups each consisting of 10 mice. Each of the compounds was suspended in an aqueous solution of 0.5% of carboxymethyl cellulose and 2.0% of Tween 80, and the resulting suspension was administered orally to the mice through a tube. One hour after the administration, 0.6% acetic acid was administered intraperitoneally in an amount of 0.1 ml per 10 g of body weight, and the number of writhings which occurred in the mice during a period of 20 minutes after the administration was measured. The percent inhibition on a group administered with the test compound based on the control group administered only with the vehicle was calculated from the following equation, and the ED50 values of the test compounds were calculated from the percent inhibition in accordance with the method of Litchfield-Wilcoxon. [formula]
The parenthesized numerals show 95% confidence limits.
Background: In writhing tests, fewer writhes than in controls are read as antinociception.

For series [2], the system named is volume of edema of left hind paw (carrageenin). Nature of the series: Test on anti-inflammatory activity (carrageenin hind paw edema). Type of series: in vivo, Wistar male rats. The conditions noted are these: Rattus norvegicus, po, 3 h, p.o., read-out: Percent inhibition (average value ± standard error). On the procedure:
In each group, the volumes of the left hind paw were measured by a volume differential meter (made by Ugo Basile Company), and 0.1 ml of a 1% suspension of carrageenin in distilled water was subcutaneously injected into the plantar tissues of the left hind paw. One hour later, each of the test compounds was suspended in the same vehicle as used in the test on analgesic activity and administered orally to the rats. Three hours later, the volumes of the left hind paw were again measured. The increase in volume of the left hind paw of each rat in each group (the volume of edema) was measured. The percent edema inhibition on the group administered with the test compounds based on the control group administered only with the vehicle was calculated in accordance with the following equation, and the results are shown in Table 2. [formula]
Background: Carrageenan injected into the paw causes an acute inflammation.

Another series deals with SD male and female rats. The experiment in a line: in vivo. The conditions noted are these: oral. From the text: (§1) Each of the test compounds was suspended in a physiological saline solution having dissolved therein 2% of Tween 80, and orally administered through a tube to groups of SD male and female rats (male: 130 to 150 g, female: 120 to 140 g) each group consisting of 8 rats. The rats were then observed for 2 weeks.

A further series can be described thus: in vivo. The settings on record: rat, in vivo, po.
Description: as §1

One may read the ED50 as the dose that gives a 50% effect, or the effect in half of the subjects. Turning to `CN1Cc2ccccc2C(=O)c2cc(CC(=O)O)ccc21` [A, 5,6-dihydro-5-methyl-11-oxodibenz[b,e]azepine-2-acetic acid], the ED50 in series [1] is 9 mg/kg. In series [2], the inhibition in vivo at 10 mg/kg was determined as 28.5 ± 2.8%, the inhibition in vivo at 30 mg/kg is 30.4 ± 4.4% and the inhibition in vivo at 90 mg/kg amounted to 43.9 ± 6.6%.

With `CC(C(=O)O)c1ccc2c(c1)C(=O)c1ccccc1CN2C` (centres unmarked) [B, 2-(5,6-dihydro-5-methyl-11-oxodibenz[b,e]azepin-2-yl)propionic acid], the ED50 in series [1] was determined as 26 mg/kg. Also, in series [2], the inhibition in vivo at 30 mg/kg came out at 23.2 ± 3.2% and the inhibition in vivo at 90 mg/kg was 38.6 ± 5.3%.

On to `CN1Cc2ccccc2C(=O)c2c(CC(=O)O)cccc21` [C, 5,6-dihydro-5-methyl-11-oxodibenz[b,e]azepine-1-acetic acid], for which, in series [2], the inhibition in vivo at 90 mg/kg worked out at 11.4 ± 12.7%. For the same molecule, the inhibition in vivo at 180 mg/kg in series [2] (180 mg/kg) was found to be 28.6 ± 8.3%.

As for `CN1Cc2ccccc2C(=O)c2ccc(CC(=O)O)cc21` [Compound D, 5,6-dihydro-5-methyl-11-oxodibenz[b,e]azepine-3-acetic acid], the ED50 in series [1] was 78 mg/kg. Moreover, in series [2], the inhibition in vivo at 10 mg/kg stood at 26.8 ± 2.9% and the inhibition in vivo at 30 mg/kg worked out at 36.4 ± 11.9%.

For `CNC(=O)Cc1ccc2c(c1)C(=O)c1ccccc1CN2C` [Compound E, 5,6-dihydro-5-methyl-11-oxodibenz[b,e]azepine-2-acetic acid methyl amide], the ED50 in series [1] came out at 46.5 mg/kg. In series [2], the inhibition in vivo at 30 mg/kg came to 11.3 ± 4.3% and the inhibition in vivo at 90 mg/kg is 44.8 ± 7.5%.

Regarding `COC(=O)Cc1ccc2c(c1)C(=O)c1ccccc1CN2C` [F, methyl 5,6-dihydro-5-methyl-11-oxodibenz[b,e]azepine-2-acetate], the inhibition in vivo at 30 mg/kg in series [2] was 11.8 ± 3.4%.

Consider `CN1Cc2ccccc2C(=O)c2cc(CC(=O)O)cc(Cl)c21` [G, 5,6-dihydro-4-chloro-5-methyl-11-oxodibenz[b,e]azepine-2-acetic acid], for which, in series [2], the inhibition in vivo at 30 mg/kg turned out to be 23.8 ± 6.9% and the inhibition in vivo at 90 mg/kg came out at 35.4 ± 5.5%.

`CN1Cc2cc(Cl)ccc2C(=O)c2cc(CC(=O)O)ccc21` [H, 5,6-dihydro-5-methyl-8-chloro-11-oxodibenz[b,e]azepine-2-acetic acid]: in series [2], the inhibition in vivo at 30 mg/kg amounted to 26.8 ± 7.3% and the inhibition in vivo at 90 mg/kg is 34.9 ± 6.5%.

Regarding `CCN1Cc2ccccc2C(=O)c2cc(CC(=O)O)ccc21` [I, 5,6-dihydro-5-ethyl-11-oxodibenz[b,e]azepine-2-acetic acid], the 50% effective dose (ED50) in series [1] came to 15.9 mg/kg. Also, in series [2], the inhibition in vivo at 10 mg/kg worked out at 20.2 ± 6.6%, the inhibition in vivo at 30 mg/kg is 25.6 ± 5.8% and the inhibition in vivo at 90 mg/kg turned out to be 35.1 ± 8.2%.

For `CCCN1Cc2ccccc2C(=O)c2cc(CC(=O)O)ccc21` [J, 5,6-dihydro-5-n-propyl-11-oxodibenz[b,e]azepine-2-acetic acid], the ED50 in series [1] was found to be 15.5 mg/kg. In series [2], the inhibition in vivo at 30 mg/kg worked out at 18.6 ± 5.2% and the inhibition in vivo at 90 mg/kg came out at 30.4 ± 4.8%.

With `CN1Cc2ccccc2C(=O)c2cc(CC(=O)OCCO)ccc21` [K, hydroxyethyl 5,6-dihydro-5-methyl-11-oxodibenz[b,e]azepine-2-acetate], in series [2], the inhibition in vivo at 30 mg/kg worked out at 23.5 ± 11.1% and the inhibition in vivo at 90 mg/kg worked out at 30.4 ± 5.5%.

`CN1Cc2ccccc2C(=O)c2cc(CC(=O)OCC3COC(C)(C)O3)ccc21` (centres unmarked) [L, 2,2-dimethyl-1,3-dioxolan-5-yl methyl 5,6-dihydro-5-methyl-11-oxodibenz[b,e]azepine-2-acetate]: in series [2], the inhibition in vivo at 30 mg/kg was determined as 17.6 ± 5.1% and the inhibition in vivo at 90 mg/kg came out at 33.3 ± 4%.

The LD50 is the dose expected to kill half of the subjects tested. A lower LD50 goes with a more toxic substance. Turning to `O=C(O)Cc1ccc2c(c1)C(=O)c1ccccc1CN2` [M, 5,6-dihydro-11-oxodibenz[b,e]azepine-2-acetic acid], the ED50 in series [1] was 5.1 mg/kg. For the same molecule, the inhibition in vivo at 10 mg/kg in series [2] came to 37.3 ± 2.4%. In addition, the inhibition in vivo at 30 mg/kg in series [2] worked out at 41.2 ± 5.4%. Besides, the Minimum lethal dose was 720 mg/kg in the series with SD male and female rats (female); 720 mg/kg in the series with SD male and female rats (male). The LD50 at 336 h in the series “in vivo” (female) was 840 mg/kg; in the series “in vivo” (male), 810 mg/kg.

For the molecule `CCCCC1C(=O)N(c2ccccc2)N(c2ccccc2)C1=O` [Phenylbutazone, phenylbutazone, reference compound], in series [1], the ED50 was found to be 130 mg/kg. Moreover, in series [2], the inhibition in vivo at 30 mg/kg worked out at 20.7 ± 2.4% and the inhibition in vivo at 90 mg/kg was found to be 34.2 ± 5.3%.

(Values after patent US4230703A, “11-Oxodibenz(b,e)azepines” (priority 1977, dated 1980).)
